Test system: B9 cells
Conditions: Repl. 2; B9 cells

## CCCS(=O)(=O)Nc1ccc(F)c(C(=O)c2c[nH]c3ncc(-c4ccc(Cl)cc4)cc23)c1F [vemurafenib]
  probe 1430623_s_at response, Obfc2a (oligonucleotide/oligosaccharide-binding fold containing 2A): 1.88
  probe 1430700_a_at response, Pla2g7 (phospholipase A2, group VII (platelet-activating factor acetylhydrolase, plasma)): 2.18
  probe 1431416_a_at response, Jam2 (junction adhesion molecule 2): 1.93
  probe 1431422_a_at response, Dusp14 (dual specificity phosphatase 14): 1.93
  probe 1431611_a_at response, Cadm1 (cell adhesion molecule 1): 2.31
  probe 1431688_at response, LOC73899 (hypothetical LOC73899): 2.41
  probe 1431691_a_at response, Rab31 (RAB31, member RAS oncogene family): 2.04
  probe 1433909_at response, Syt17 (synaptotagmin XVII): 2.17
  probe 1434059_at response, B230312A22Rik (RIKEN cDNA B230312A22 gene): 2.10
  probe 1434092_at response, Atg9b (ATG9 autophagy related 9 homolog B (S. cerevisiae)): 1.89
  probe 1434109_at response, Sh3bgrl2 (SH3 domain binding glutamic acid-rich protein like 2): 2.33
  probe 1434252_at response, Tmcc3 (transmembrane and coiled coil domains 3): 1.95
  probe 1434601_at response, Amigo2 (adhesion molecule with Ig like domain 2): 1.89
  probe 1434957_at response, Cdon (cell adhesion molecule-related/down-regulated by oncogenes): 0.46
  probe 1435066_at response, Pitpnc1 (phosphatidylinositol transfer protein, cytoplasmic 1): 2.32
  probe 1435176_a_at response, Id2 (inhibitor of DNA binding 2): 0.46
  probe 1435330_at response, Pyhin1 (pyrin and HIN domain family, member 1): 2.38
  probe 1435331_at response, Pyhin1 (pyrin and HIN domain family, member 1): 3.71
  probe 1435460_at response, Prkg2 (protein kinase, cGMP-dependent, type II): 1.96
  probe 1435695_a_at response, Ggct (gamma-glutamyl cyclotransferase): 2.19
  probe 1436100_at response, Sh2d5 (SH2 domain containing 5): 2.35
  probe 1436329_at response, Egr3 (early growth response 3): 2.77
  probe 1436584_at response, Spry2 (sprouty homolog 2 (Drosophila)): 3.54
  probe 1436659_at response, Dclk1 (doublecortin-like kinase 1): 2.37
  probe 1436917_s_at response, Gpsm1 (G-protein signalling modulator 1 (AGS3-like, C. elegans)): 1.89
  probe 1436944_x_at response, Pisd /// Pisd-ps1 ///Pisd-ps3 (phosphatidylserine decarboxylase /// phosphatidylserine decarboxylase, pseudogene 1 /// phosphatidylserine decarboxylase, pseudogene 3): 0.48
  probe 1437092_at response, Clip4 (CAP-GLY domain containing linker protein family, member 4): 2.13
  probe 1437100_x_at response, Pim3 (proviral integration site 3): 2.05
  probe 1437199_at response: 4.31
  probe 1437271_at response, Clcf1 (cardiotrophin-like cytokine factor 1): 1.96
  probe 1437486_at response, Gprc5a (G protein-coupled receptor, family C, group 5, member A): 2.08
  probe 1437982_x_at response, Cox15 (COX15 homolog, cytochrome c oxidase assembly protein (yeast)): 0.45
  probe 1438038_at response, 4930402H24Rik (RIKEN cDNA 4930402H24 gene): 1.93
  probe 1438664_at response, Prkar2b (protein kinase, cAMP dependent regulatory, type II beta): 0.49
  probe 1438699_at response, Srd5a1 (steroid 5 alpha-reductase 1): 1.87
  probe 1439016_x_at response, Sprr2a (small proline-rich protein 2A): 0.42
  probe 1439109_at response, Ccdc68 (coiled-coil domain containing 68): 0.50
  probe 1439434_x_at response, Sh2d5 (SH2 domain containing 5): 1.91
  probe 1439797_at response, Ppard (peroxisome proliferator activator receptor delta): 2.32
  probe 1439878_at response, Ivl (involucrin): 2.90
  probe 1440169_x_at response, Ifnar2 (interferon (alpha and beta) receptor 2): 0.53
  probe 1440559_at response, Hmga2-ps1 (high mobility group AT-hook 2, pseudogene 1): 2.95
  probe 1441315_s_at response, Slc19a2 (solute carrier family 19 (thiamine transporter), member 2): 2.18
  probe 1441917_s_at response, Tmem40 (transmembrane protein 40): 2.11
  probe 1442350_at response: 2.13
  probe 1442363_at response, 1110012J17Rik (RIKEN cDNA 1110012J17 gene): 1.96
  probe 1443536_at response, Slc7a11 (solute carrier family 7 (cationic amino acid transporter, y+ system), member 11): 0.40
  probe 1445758_at response: 0.52
  probe 1446791_at response, Pi15 (peptidase inhibitor 15): 0.48
  probe 1447661_at response: 0.43
  probe 1447845_s_at response, Vnn1 (vanin 1): 0.46
  probe 1448364_at response, Ccng2 (cyclin G2): 2.01
  probe 1448532_at response, Prl8a9 (prolactin family8, subfamily a, member 9): 2.67
  probe 1448562_at response, Upp1 (uridine phosphorylase 1): 2.99
  probe 1448613_at response, Ecm1 (extracellular matrix protein 1): 1.89
  probe 1448617_at response, Cd53 (CD53 antigen): 1.99
  probe 1448810_at response, Gne (glucosamine): 2.16
  probe 1448855_at response, Rassf1 (Ras association (RalGDS/AF-6) domain family member 1): 2.05
  probe 1448894_at response, Akr1b8 (aldo-keto reductase family 1, member B8): 1.99
  probe 1448978_at response, Ngef (neuronal guanine nucleotide exchange factor): 3.24
  probe 1449038_at response, Hsd11b1 (hydroxysteroid 11-beta dehydrogenase 1): 2.51
  probe 1449125_at response, Tnfaip8l1 (tumor necrosis factor, alpha-induced protein 8-like 1): 2.10
  probe 1449133_at response, Sprr1a (small proline-rich protein 1A): 2.78
  probe 1449268_at response, Gfpt1 (glutamine fructose-6-phosphate transaminase 1): 2.36
  probe 1449297_at response, Casp12 (caspase 12): 0.47
  probe 1449334_at response, Timp3 (tissue inhibitor of metalloproteinase 3): 0.42
  probe 1449367_at response, Trex2 (three prime repair exonuclease 2): 4.68
  probe 1449408_at response, Jam2 (junction adhesion molecule 2): 2.08
  probe 1449545_at response, Fgf18 (fibroblast growth factor 18): 3.38
  probe 1449965_at response, Mcpt8 (mast cell protease 8): 2.61
  probe 1450241_a_at response, Evi2a (ecotropic viral integration site 2a): 4.27
  probe 1450262_at response, Clcf1 (cardiotrophin-like cytokine factor 1): 2.12
  probe 1450276_a_at response, Scin (scinderin): 2.63
  probe 1450376_at response, Mxi1 (Max interacting protein 1): 2.00
  probe 1450430_at response, Mrc1 (mannose receptor, C type 1): 2.97
  probe 1450501_at response, Itga2 (integrin alpha 2): 2.48
  probe 1450791_at response, Nppb (natriuretic peptide precursor type B): 4.39
  probe 1450976_at response, Ndrg1 (N-myc downstream regulated gene 1): 2.47
  probe 1451006_at response, Xdh (xanthine dehydrogenase): 0.39
  probe 1451308_at response, Elovl4 (elongation of very long chain fatty acids (FEN1/Elo2, SUR4/Elo3, yeast)-like 4): 2.21
  probe 1451446_at response, Antxr1 (anthrax toxin receptor 1): 0.43
  probe 1451501_a_at response, Ghr (growth hormone receptor): 2.25
  probe 1451529_at response, Sgtb (small glutamine-rich tetratricopeptide repeat (TPR)-containing, beta): 2.47
  probe 1451798_at response, Il1rn (interleukin 1 receptor antagonist): 2.76
  probe 1452058_a_at response, Rnfl1 (ring finger protein 11): 2.02
  probe 1452087_at response, Epsti1 (epithelial stromal interaction 1 (breast)): 2.32
  probe 1452203_at response, Obfc2a (oligonucleotide/oligosaccharide-binding fold containing 2A): 1.90
  probe 1452352_at response, Ctla2b (cytotoxic T lymphocyte-associated protein 2 beta): 2.30
  probe 1452521_a_at response, Plaur (plasminogen activator, urokinase receptor): 2.09
  probe 1453055_at response, Sema6d (sema domain, transmembrane domain (TM), and cytoplasmic domain, (semaphorin) 6D): 4.08
  probe 1453278_a_at response, Clip4 (CAP-GLY domain containing linker protein family, member 4): 1.99
  probe 1453345_at response, Nipal1 (NIPA-like domain containing 1): 3.92
  probe 1454048_a_at response, 4931408A02Rik /// LOC630876 (RIKEN cDNA 4931408A02 gene /// similar to Protein C21orf63 homolog precursor): 0.46
  probe 1454254_s_at response, 1600029D21Rik (RIKEN cDNA 1600029D21 gene): 2.18
  probe 1454649_at response, Srd5a1 (steroid 5 alpha-reductase 1): 2.08
  probe 1454699_at response, LOC100047324 /// Sesn1 (similar to Sesn1 protein /// sestrin 1): 0.37
  probe 1454710_at response, Spink2 (serine peptidase inhibitor, Kazal type 2): 2.03
  probe 1454780_at response, Galntl4 (UDP-N-acetyl-alpha-D-galactosamine:polypeptide N-acetylgalactosaminyltransferase-like 4): 0.44
  probe 1454877_at response, Sertad4 (SERTA domain containing 4): 0.42
  probe 1455104_at response, Mxd1 (MAX dimerization protein 1): 2.85
  probe 1455241_at response, BC037703 (cDNA sequence BC037703): 0.50
  probe 1455299_at response, Vgll3 (vestigial like 3 (Drosophila)): 0.44
  probe 1455981_at response, Gm11263 /// Gm12242 /// Gm13654 /// Gm14138 /// Gm16406 /// Gm4796 /// Gm6476 /// Gm9143 /// LOC100043734 /// LOC236932 /// LOC623245 /// LOC639593 /// Rps6: 0.46
  probe 1456150_at response, Jhdm1d (jumonji C domain-containing histone demethylase 1 homolog D (S. cerevisiae)): 1.99
  probe 1456174_x_at response, Ndrg1 (N-myc downstream regulated gene 1): 2.00
  probe 1456248_at response, Lce3f /// LOC630971 (late cornified envelope 3F /// hypothetical protein LOC630971): 2.45
  probe 1456284_at response, Tmem171 (transmembrane protein 171): 1.95
  probe 1456321_at response, Nipal1 (NIPA-like domain containing 1): 2.99
  probe 1456725_x_at response, Ezr (ezrin): 0.49
  probe 1456874_at response, Flrt2 (fibronectin leucine rich transmembrane protein 2): 0.54
  probe 1457042_at response, AI256396 (EST AI256396): 0.52
  probe 1457568_at response, Hnrnpd (heterogeneous nuclear ribonucleoprotein D): 0.50
  probe 1457666_s_at response, Ifi202b (interferon activated gene 202B): 3.89
  probe 1460220_a_at response, Csf1 (colony stimulating factor 1 (macrophage)): 0.38
  probe 1460302_at response, Thbs1 (thrombospondin 1): 0.50
  probe 1460472_at response, Cdk3 (cyclin-dependent kinase 3): 1.99
  probe 1460521_a_at response, Obfc2a (oligonucleotide/oligosaccharide-binding fold containing 2A): 2.32
  probe 1460695_a_at response, 2010111I01Rik (RIKEN cDNA 2010111I01 gene): 0.48

Source: US10421761B2, “Compounds for kinase modulation, and indications therefor” (Plexxikon Inc., priority 2013, dated 2019)
